Experimental data taken from paper PMC7692923, “Co-Ingestion of Black Carrot and Strawberry. Effects on Anthocyanin Stability, Bioaccessibility and Uptake” (Foods, 2020).

Legend:
Assay type in all cases: in vitro ADME
[1] = Intestinal stability of anthocyanins in extracts, standardized in vitro digestion (simulated intestinal fluid, pancreatin, bile, pH 7); conditions: for Intestinal stability: % of undigested; for Post-Intestinal concentration: mean ± SD n = 3
Protocol: (§1) A standardized in vitro digestion procedure was applied to each sample [20]. For the gastric phase, 7.5 mL of a simulated gastric fluid (in mM: KCl 6.9, KH2PO4 0.9, NaHCO3 25, NaCl 47.2, MgCl2(H2O) 0.1, (NH4)2CO3 0.5, pH 3.0), 5 µL of CaCl2 (0.3 M) and 1.6 mL of porcine pepsin solution (25,000 U/mL) were added and the pH of was adjusted to 3.0 using HCl (1 M). Demineralized water was added to the gastric chyme to complete a volume of 20 mL. Nitrogen was flushed into the headspace of the tubes before incubation at 37 °C during 2 h in the dark, while end-over-end rotation (40 rpm). For the intestinal phase simulation, the gastric chyme was mixed with 11 mL of simulated intestinal fluid (in mM: KCl 6.8, KH2PO4 0.8, NaHCO3 85, NaCl 38.4, MgCl2(H2O) 0.33, pH 7.0), 40 µL of CaCl2, 5 mL of pancreatin solution (800 U/mL based on trypsin activity) and 2.5 mL of bile solution (160 mM). NaOH (1 M) was used to adjust the pH to 7 and water to complete the volume until 40 mL. Prior to incubation in the dark, at 37 °C, 2 h, end-over-end rotation, the headspace of the tubes was flushed with nitrogen.
(§2) Aliquots from gastric and intestinal digests were sampled along black carrot and strawberry extracts digestion, stabilized by acidification with formic acid and stored at −20 °C until further analysis. Stability (%) was calculated as indicated by Equations (1) and (2). (1) Gastric stability (%)=(anthocyanin (mg·100 mL^−1) after gastric digestion)/(anthocyanin (mg·100 mL^−1) before digestion)×100 (2) Intestinal stability (%)=(anthocyanin (mg·100 mL^−1) after intestinal digestion)/(anthocyanin (mg·100 mL^−1) before digestion)×100

[2] = In vitro bioaccessibility after digestion of matrix-containing powder; conditions: for Post-digestion concentration (bioaccessible fraction): mean ± SD n = 3
Protocol: as §1
After digestion of the powdered samples, an ultracentrifugation (Beckman L7 ultracentrifuge, Palo, Alto, CA, USA) at 165,000× g, 4 °C, 65 min, was performed to separate soluble and non-soluble fractions. The supernatant, containing the bioaccessible anthocyanins, was isolated. For the determination of anthocyanins, the digest was acidified with formic acid (1%) to stabilize the compounds, prior to the quantification by high performance liquid chromatography (HPLC). Results are shown as the ratio of the bioaccessible compound concentration to the initial compound concentration in the sample, as indicated in Equation (3). (3) Bioaccessibility (%)=(anthocyanin (mg.100 g^−1) after digestion)/(anthocyanin (mg.100 g^−1) before digestion)×100

[3] = Gastric stability of anthocyanins in extracts, standardized in vitro digestion (simulated gastric fluid, pepsin, pH 3.0); conditions: for Gastric stability: % of undigested
Protocol: as §1, §2

[4] = co-digestion of black carrot and strawberry extracts
[5] = single digestion, liquid extract
[6] = single digestion, liquid extract, pH 7, 2 h 37 °C
[7] = co-digestion of black carrot and strawberry powder
[8] = single digestion, matrix-containing powder
[9] = co-digestion of black carrot and strawberry extracts, mean ± SD n = 3
[10] = single digestion, liquid extract, 2 h 37 °C pH 3.0, mean ± SD n = 3

SMILES | Intestinal stability [1, 4] | Post-Intestinal concentration [1, 4] | Intestinal stability [1, 5] | Post-Intestinal concentration [1, 6] | Bioaccessibility [2, 7] | Bioaccessibility [2, 8] | Gastric stability [3, 4] | Post-Gastric concentration [3, 9] | Post-Gastric concentration [3, 10] | Gastric stability [3, 5] | Post-digestion concentration (bioaccessible fraction) [2, 7] | Post-digestion concentration (bioaccessible fraction) [2, 8]
O=C(O)CC(=O)OC[C@H]1O[C@@H](Oc2cc3c(O)cc(O)cc3[o+]c2-c2ccc(O)cc2)[C@H](O)[C@@H](O)[C@@H]1O [Pelargonidin-3-malonyl-glucoside] | 49% | 1.91 ± 0.02 mg/100 mL of extract | 46% | 1.77 ± 0.01 mg/100 mL of extract | 36% | 34% | 92% | 3.57 ± 0.07 mg/100 mL of extract | 3.37 ± 0.01 mg/100 mL of extract | 87% | 81.3 ± 6.6 mg/100 g of sample (dry weight) | 76.2 ± 1.8 mg/100 g of sample (dry weight)
OC[C@H]1O[C@@H](Oc2cc3c(O)cc(O)cc3[o+]c2-c2ccc(O)c(O)c2)[C@H](O[C@@H]2OC[C@@H](O)[C@H](O)[C@H]2O)[C@@H](O)[C@H]1O [Cyanidin-3-xylosyl-galactoside] | 92% | 1.09 ± 0.01 mg/100 mL of extract | 79% | 0.94 ± 0.01 mg/100 mL of extract | 84% | 33% | 83% | 0.98 ± 0.02 mg/100 mL of extract | 0.95 ± 0.00 mg/100 mL of extract | 81% | 113.8 ± 0.2 mg/100 g of sample (dry weight) | 44.1 ± 4.4 mg/100 g of sample (dry weight)
OC[C@H]1O[C@@H](Oc2cc3c(O)cc(O)cc3[o+]c2-c2ccc(O)cc2)[C@H](O)[C@@H](O)[C@@H]1O [Pelargonidin-3-glucoside] | 35% | 5.78 ± 0.13 mg/100 mL of extract | 49% | 6.01 ± 0.02 mg/100 mL of extract | 28% | 36% | 76% | 12.63 ± 0.46 mg/100 mL of extract | 11.13 ± 0.09 mg/100 mL of extract | 90% | 272.5 ± 19.7 mg/100 g of sample (dry weight) | 256.6 ± 8.3 mg/100 g of sample (dry weight)

Now from value to compound, other results behind:

Intestinal stability [1, 4] | Post-Intestinal concentration [1, 4] | Intestinal stability [1, 5] | Post-Intestinal concentration [1, 6] | Bioaccessibility [2, 7] | Bioaccessibility [2, 8] | Gastric stability [3, 4] | Post-Gastric concentration [3, 9] | Post-Gastric concentration [3, 10] | Gastric stability [3, 5] | SMILES | Post-digestion concentration (bioaccessible fraction) [2, 7] | Post-digestion concentration (bioaccessible fraction) [2, 8]
42% | 0.75 ± 0.04 mg/100 mL of extract | 48% | 0.85 ± 0.07 mg/100 mL of extract | 52% | 28% | 66% | 1.16 ± 0.02 mg/100 mL of extract | 1.14 ± 0.01 mg/100 mL of extract | 65% | O=C(/C=C/c1ccc(O)cc1)OC[C@H]1O[C@@H](OC[C@H]2O[C@@H](Oc3cc4c(O)cc(O)cc4[o+]c3-c3ccc(O)c(O)c3)[C@H](O[C@@H]3OC[C@@H](O)[C@H](O)[C@H]3O)[C@@H](O)[C@H]2O)[C@H](O)[C@@H](O)[C@@H]1O [Cyanidin-3-xylosyl-coumaroyl-glucosyl-galactoside] | 105.2 ± 0.9 mg/100 g of sample (dry weight) | 55.8 ± 5.2 mg/100 g of sample (dry weight)
60% | 5.81 ± 0.03 mg/100 mL of extract | 58% | 5.54 ± 0.05 mg/100 mL of extract | 48% | 34% | 86% | 8.28 ± 0.03 mg/100 mL of extract | 8.23 ± 0.04 mg/100 mL of extract | 86% | COc1cc(/C=C/C(=O)OC[C@H]2O[C@@H](OC[C@H]3O[C@@H](Oc4cc5c(O)cc(O)cc5[o+]c4-c4ccc(O)c(O)c4)[C@H](O[C@@H]4OC[C@@H](O)[C@H](O)[C@H]4O)[C@@H](O)[C@H]3O)[C@H](O)[C@@H](O)[C@@H]2O)ccc1O [Cyanidin-3-xylosyl-feruloyl-glucosyl-galactoside] | 528.3 ± 15.0 mg/100 g of sample (dry weight) | 378.4 ± 26.1 mg/100 g of sample (dry weight)
99% | 0.42 ± 0.00 mg/100 mL of extract | 86% | 0.36 ± 0.00 mg/100 mL of extract | 105% | 62% | 56% | 0.24 ± 0.02 mg/100 mL of extract | 0.25 ± 0.01 mg/100 mL of extract | 59% | OC[C@H]1O[C@@H](OC[C@H]2O[C@@H](Oc3cc4c(O)cc(O)cc4[o+]c3-c3ccc(O)c(O)c3)[C@H](O[C@@H]3OC[C@@H](O)[C@H](O)[C@H]3O)[C@@H](O)[C@H]2O)[C@H](O)[C@@H](O)[C@@H]1O [Cyanidin-3-xylosyl-glucosyl-galactoside] | 50.5 ± 9.2 mg/100 g of sample (dry weight) | 29.7 ± 3.7 mg/100 g of sample (dry weight)
